Positions count from the first letter of the chain named. Like-named read-outs stand apart in the source and are kept apart here. Each block holds one compound with its values, some of them ahead of it.
Tests used:
[1] = target: T1, constitutively active mutant human 5HT2C receptor AP-1 (Homo sapiens, UniProt P28335, S310K); test: [35S]GTPγS binding assay, constitutively active mutant human 5HT2C receptor AP-1; assay type: biochemical
T1 sequence (P28335 33-458 S310K): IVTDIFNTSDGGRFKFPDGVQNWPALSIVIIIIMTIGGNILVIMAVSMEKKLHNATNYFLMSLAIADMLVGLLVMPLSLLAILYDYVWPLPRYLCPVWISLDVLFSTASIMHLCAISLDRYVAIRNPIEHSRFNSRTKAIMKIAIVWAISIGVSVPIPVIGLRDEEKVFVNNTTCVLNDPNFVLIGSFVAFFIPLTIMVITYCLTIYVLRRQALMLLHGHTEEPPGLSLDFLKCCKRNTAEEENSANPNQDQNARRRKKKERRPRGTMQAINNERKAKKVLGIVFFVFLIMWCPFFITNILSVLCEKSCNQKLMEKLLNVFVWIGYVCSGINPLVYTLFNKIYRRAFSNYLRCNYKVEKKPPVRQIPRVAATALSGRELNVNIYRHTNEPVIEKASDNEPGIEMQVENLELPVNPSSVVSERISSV

[2] = target: T2, Wild Type Human 5HT2A Receptor (Homo sapiens, UniProt P28223); test: [3H]LSD competitive binding assay, wild type 5HT2A
T2 construct: expressed in transfected cells; host or cells: COS-7 cells, transient transfection (pCMV); membranes
T2 sequence (P28223 whole entry T25N/H452Y): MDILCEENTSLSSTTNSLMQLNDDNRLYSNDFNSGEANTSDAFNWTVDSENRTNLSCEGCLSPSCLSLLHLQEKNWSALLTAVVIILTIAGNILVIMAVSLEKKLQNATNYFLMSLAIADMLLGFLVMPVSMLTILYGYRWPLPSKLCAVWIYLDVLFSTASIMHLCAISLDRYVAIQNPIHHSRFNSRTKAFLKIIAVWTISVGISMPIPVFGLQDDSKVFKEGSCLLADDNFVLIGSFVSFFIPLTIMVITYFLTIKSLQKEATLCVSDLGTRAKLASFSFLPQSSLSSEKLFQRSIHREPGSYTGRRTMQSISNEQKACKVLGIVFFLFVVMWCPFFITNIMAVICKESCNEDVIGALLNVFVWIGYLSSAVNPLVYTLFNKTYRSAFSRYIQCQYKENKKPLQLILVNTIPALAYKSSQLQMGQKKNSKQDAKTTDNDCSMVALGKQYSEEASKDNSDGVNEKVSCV

[3] = test system: Adult male Sprague-Dawley rats; test: Amphetamine-stimulated locomotor activity in rats; assay type: in vivo
Text: A 5HT2A receptor antagonist or inverse agonist is expected to decrease amphetamine-stimulated locomotion without affecting baseline locomotion. See, for example, Soresnon, et al, 266(2) J. Pharmacol. Exp. Ther. 684 (1993). […] For the following study, the following parameters and protocol were utilized:
Adult male Sprague-Dawley rats were utilized for these studies. Animals were housed in groups of 2-3 in hanging plastic cages with food and water available at all times. Animals were weighed and handled for at least one day prior to surgery and throughout the studies. For these studies, Vehicle consisted of 90% ethanol (100%) and 10% water.
A San Diego Instruments Flex Field apparatus was used to quantify baseline and amphetamine-stimulated locomotor activity. This apparatus consists of four 16"×16" clear plastic open fields. Photocell arrays (16 in each dimension) interfaced with a personal computer to automatically quantify activity. Several measures of activity can be assessed with the apparatus, including total photocell beam breaks. Animals (vehicle control and Compound treated) were injected s.c. 30 minutes prior to initiation of analysis. Following this 30 minute period, animals were placed individually into an open field and baseline activity was assessed for 30 minutes (habituation phase). […]

[4] = target: T3, endogenous human 5-HT2C receptor (Homo sapiens, UniProt P28335)
T3 sequence (P28335 33-458): T1 sequence (P28335 33-458 S310K) with K278S

[5] = test system: human mutated 5HT2A receptor, AP-3; test: Inositol phosphate (IP3) accumulation assay, AP-3; assay type: cell-based; settings: preferred compounds tables (μM)
[6] = test system: 5HT2A receptor (cerebral cortex); test: I125-LSD displacement from rat brain sections, cerebral cortex (5HT2A); assay type: binding, Sprague-Dawley rats; settings: 1 micromolar compound, 1 nanomolar I125-LSD, 30 minutes room temperature

SMILES: Cn1cc(Br)c(-c2cccc(NC(=O)Nc3ccc(OC(F)(F)F)cc3)c2)n1 [Compound 103487, N-[3-(4-bromo-1-methylpyrazol-3-yl)phenyl][{(4-trifluoromethoxy)phenyl}amino]carboxamide]
inhibition at 10 µM ([1]; read-out: GTPγS AP-1 Percent Inhibition Relative To Positive Control (Primary)): -1% | inhibition at 10 µM ([1]; read-out: GTPγS AP-1 Percent Inhibition Relative To Positive Control (Reconfirm)): 31%

SMILES: CC(C)c1ccc(NC(=O)Nc2cccc(-c3nn(C)cc3Br)c2)cc1 [Compound 116110, {[3-(4-bromo-1-methylpyrazol-3-yl)phenyl]amino}-N-[4-(methylethyl)phenyl]carboxamide]
IC50 [2]: 338 nM

SMILES: Cn1cc(Br)c(-c2cccc(NC(=O)c3cccs3)c2)n1 [Compound 116102, N-[3-(4-bromo-1-methylpyrazol-3-yl)phenyl][2-thienyl]carboxamide]
amphetamine-stimulated locomotion ([3]; s.c., 0.1, 1.0, 5.0, 10.0 mg/kg, d-amphetamine sulfate 1.0 mg/kg, photobeam breaks): with exception of the highest dose (10 mg/kg), in vivo, the tested doses of Compound 116102 evidenced a decrease in the amphetamine-stimulated locomotion | dose-response pattern of locomotor activity ([3]; s.c., 0.1-10.0 mg/kg, FIGS. 17A-C): "inverted U" shaped pattern

SMILES: CSc1ccc2c(c1)C(N1CCN(C)CC1)Cc1ccccc1S2 (stereo not shown) [Methiothepin]
IC50 [1]: 20.4 nM

[35S]GTPγS binding, serotonin stimulation and inhibition by mianserin ([1]; FIG. 10, AP-1 receptors in 293T cells, mianserin 30 μM, Wallac scintistrips): inhibition | inhibition of serotonin-stimulated [35S]GTPγS binding ([4]; 30 μM (FIG. 9), FIG. 10 on Wallac scintistrips): inhibits this response | effect on basal constitutive [35S]GTPγS binding ([4]; FIG. 10, membranes expressing endogenous human 5-HT2C receptor): partial inverse agonist
SMILES: CN1CCN2c3ccccc3Cc3ccccc3C2C1 (stereo not shown) [mianserin]

SMILES: Clc1ccc2c(c1)N=C(N1CCNCC1)c1ccccc1N2 [Normethylclozapin]
IC50 [1]: 21.4 nM

SMILES: Cn1cc(Br)c(-c2cccc(NC(=O)OC(C)(C)C)c2)n1 [Compound 116192]
IC50 [5]: 0.057 µM

SMILES: COc1ccc(OC(=O)Nc2cccc(-c3nn(C)cc3Br)c2)cc1 [Compound 116100, N-[3-(4-bromo-1-methylpyrazol-3-yl)phenyl][4-methoxyphenoxy]carboxamide]
IC50 [5]: 0.0003 µM | displacement of I125-LSD from cortex [6]: selectively displace the I^125 -LSD from the cortex (5HT2A)
